Reference: ChEMBL document CHEMBL1201862, “PubChem BioAssay data set” (2004)
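Exposure lasted 48 hours, with cells grown in 96-well plates and compounds tested at five concentrations. Abbreviation: GI50, concentration required for 50% inhibition of growth.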 Activity calls are given as the source filed them. No stated cut-off is given here; in the data, active = GI50 up to about 1.1 µM and inactive = higher.

What was measured:
Assay in all cases: growth of human tumour cells (NCI), 48 h
MDA-MB-231 = tested on: MDA-MB-231
MDA-MB-435 = tested on: MDA-MB-435
HT-29 = tested on: HT-29
OVCAR-3 = tested on: OVCAR-3
SK-MEL-5 = tested on: SK-MEL-5
MOLT-4 = tested on: MOLT-4
SN12C = tested on: SN12C
EKVX = tested on: EKVX
HOP-92 = tested on: HOP-92
NCI/ADR-RES = tested on: NCI/ADR-RES
ACHN = tested on: ACHN
KM12 = tested on: KM12
SF-539 = tested on: SF-539
TK-10 = tested on: TK-10
A498 = tested on: A498
SNB-75 = tested on: SNB-75
T47D = tested on: T47D
HOP-62 = tested on: HOP-62
NCI-H522 = tested on: NCI-H522
BT-549 = tested on: BT-549
RXF 393 = tested on: RXF 393
SW-620 = tested on: SW-620
SK-OV-3 = tested on: SK-OV-3
UACC-257 = tested on: UACC-257
786-0 = tested on: 786-0
SF-268 = tested on: SF-268
HCT-15 = tested on: HCT-15
NCI-H226 = tested on: NCI-H226
DU-145 = tested on: DU-145
HCT-116 = tested on: HCT-116
NCI-H23 = tested on: NCI-H23
OVCAR-8 = tested on: OVCAR-8
SF-295 = tested on: SF-295
COLO 205 = tested on: COLO 205
Malme-3M = tested on: Malme-3M
CAKI-1 = tested on: CAKI-1
OVCAR-4 = tested on: OVCAR-4
MDA-N = tested on: MDA-N
U-251 = tested on: U-251
OVCAR-5 = tested on: OVCAR-5
RPMI-8226 = tested on: RPMI-8226
LOX IMVI = tested on: LOX IMVI
SK-MEL-28 = tested on: SK-MEL-28
UACC-62 = tested on: UACC-62
SNB-19 = tested on: SNB-19
A549 = tested on: A549
CCRF-CEM = tested on: CCRF-CEM
K562 = tested on: K562
Hs-578T = tested on: Hs-578T
HL-60 = tested on: HL-60
SK-MEL-2 = tested on: SK-MEL-2
UO-31 = tested on: UO-31
IGROV-1 = tested on: IGROV-1
SR = tested on: SR
MCF7 = tested on: MCF7
M14 = tested on: M14
PC-3 = tested on: PC-3
NCI-H460 = tested on: NCI-H460
HCC 2998 = tested on: HCC 2998

Compound: N#CCc1nc2cc(C(F)(F)F)ccc2s1
- GI50 (MDA-MB-231): 95.1 µM (inactive)
- GI50 (MDA-MB-435): 40.4 µM (inactive)
- GI50 (HT-29): 37.7 µM (inactive)
- GI50 (OVCAR-3): 18.3 µM (inactive)
- GI50 (SK-MEL-5): 50.7 µM (inactive)
- GI50 (MOLT-4): 7.96 µM (inactive)
- GI50 (SN12C): 45.5 µM (inactive)
- GI50 (EKVX): 10.7 µM (inactive)
- GI50 (HOP-92): 20.4 µM (inactive)
- GI50 (NCI/ADR-RES): 55.7 µM (inactive)
- GI50 (ACHN): 56 µM (inactive)
- GI50 (KM12): 64.6 µM (inactive)
- GI50 (SF-539): 51.8 µM (inactive)
- GI50 (TK-10): 41.8 µM (inactive)
- GI50 (A498): 70 µM (inactive)
- GI50 (SNB-75): 35.3 µM (inactive)
- GI50 (T47D): 23.1 µM (inactive)
- GI50 (HOP-62): 73.3 µM (inactive)
- GI50 (NCI-H522): 11.1 µM (inactive)
- GI50 (BT-549): 31 µM (inactive)
- GI50 (RXF 393): 52.2 µM (inactive)
- GI50 (SW-620): 56.4 µM (inactive)
- GI50 (SK-OV-3): > 100 µM (inactive)
- GI50 (UACC-257): 34.4 µM (inactive)
- GI50 (786-0): 37.3 µM (inactive)
- GI50 (SF-268): 34.8 µM (inactive)
- GI50 (HCT-15): 52.1 µM
- GI50 (NCI-H226): 57.8 µM (inactive)
- GI50 (DU-145): 48.3 µM (inactive)
- GI50 (HCT-116): 26.7 µM (inactive)
- GI50 (NCI-H23): 27.7 µM (inactive)
- GI50 (OVCAR-8): 30.1 µM (inactive)
- GI50 (SF-295): 49.4 µM (inactive)
- GI50 (COLO 205): 34 µM (inactive)
- GI50 (Malme-3M): 42.6 µM (inactive)
- GI50 (CAKI-1): 70.6 µM (inactive)
- GI50 (OVCAR-4): 38.6 µM (inactive)
- GI50 (MDA-N): 32.2 µM (inactive)
- GI50 (U-251): 38.7 µM (inactive)
- GI50 (OVCAR-5): > 100 µM (inactive)
- GI50 (RPMI-8226): 29.4 µM (inactive)
- GI50 (LOX IMVI): 26.4 µM (inactive)

Compound: COc1cc(NC(C)=O)ccc1C(=O)NN1C(=O)/C(=C/c2ccco2)N=C1c1ccccc1
- GI50 (SK-MEL-28): 28.6 µM (inactive)
- GI50 (MDA-MB-435): 25 µM (inactive)
- GI50 (UACC-62): 25.4 µM (inactive)
- GI50 (HT-29): 36.9 µM (inactive)
- GI50 (OVCAR-3): > 50 µM (inactive)
- GI50 (SK-MEL-5): 16 µM (inactive)
- GI50 (SNB-19): > 50 µM (inactive)
- GI50 (MOLT-4): 14.5 µM (inactive)
- GI50 (A549): > 50 µM (inactive)
- GI50 (SN12C): > 50 µM (inactive)
- GI50 (CCRF-CEM): 12.5 µM (inactive)
- GI50 (K562): 20.5 µM (inactive)
- GI50 (EKVX): > 50 µM (inactive)
- GI50 (HOP-92): > 50 µM (inactive)
- GI50 (Hs-578T): > 50 µM (inactive)
- GI50 (NCI/ADR-RES): > 50 µM (inactive)
- GI50 (ACHN): > 50 µM (inactive)
- GI50 (SF-539): 33.4 µM (inactive)
- GI50 (HL-60): 13.6 µM (inactive)
- GI50 (A498): 15.4 µM (inactive)
- GI50 (SNB-75): > 50 µM (inactive)
- GI50 (T47D): > 50 µM (inactive)
- GI50 (HOP-62): 21.4 µM (inactive)
- GI50 (NCI-H522): 24.5 µM (inactive)
- GI50 (BT-549): > 50 µM (inactive)
- GI50 (SK-MEL-2): 14.3 µM (inactive)
- GI50 (RXF 393): > 50 µM (inactive)
- GI50 (SW-620): 27.7 µM (inactive)
- GI50 (SK-OV-3): > 50 µM (inactive)
- GI50 (786-0): 24.3 µM (inactive)
- GI50 (SF-268): > 50 µM (inactive)
- GI50 (UO-31): > 50 µM (inactive)
- GI50 (HCT-15): > 50 µM
- GI50 (DU-145): > 50 µM (inactive)
- GI50 (HCT-116): 30.8 µM (inactive)
- GI50 (NCI-H23): > 50 µM (inactive)
- GI50 (IGROV-1): > 50 µM (inactive)
- GI50 (SR): 22.5 µM (inactive)
- GI50 (MCF7): 34.3 µM (inactive)
- GI50 (M14): 38.2 µM (inactive)
- GI50 (OVCAR-8): > 50 µM (inactive)
- GI50 (SF-295): > 50 µM (inactive)
- GI50 (COLO 205): > 50 µM (inactive)
- GI50 (Malme-3M): > 50 µM (inactive)
- GI50 (CAKI-1): > 50 µM (inactive)
- GI50 (OVCAR-4): 49.5 µM (inactive)
- GI50 (MDA-N): 14.9 µM (inactive)
- GI50 (OVCAR-5): > 50 µM (inactive)
- GI50 (RPMI-8226): 13.5 µM (inactive)
- GI50 (PC-3): > 50 µM (inactive)
- GI50 (LOX IMVI): 34.2 µM (inactive)

Compound: Nc1c(Cl)c([N+](=O)[O-])cc2c1OCCCCO2
- GI50 (SK-MEL-28): > 100 µM (inactive)
- GI50 (MDA-MB-231): 83.4 µM (inactive)
- GI50 (MDA-MB-435): > 100 µM (inactive)
- GI50 (UACC-62): 95.5 µM (inactive)
- GI50 (HT-29): > 100 µM (inactive)
- GI50 (OVCAR-3): > 100 µM (inactive)
- GI50 (SK-MEL-5): 44.9 µM (inactive)
- GI50 (SNB-19): > 10 µM (inactive)
- GI50 (MOLT-4): > 100 µM (inactive)
- GI50 (A549): > 100 µM (inactive)
- GI50 (SN12C): > 100 µM (inactive)
- GI50 (CCRF-CEM): 79.6 µM (inactive)
- GI50 (K562): > 100 µM (inactive)
- GI50 (EKVX): 61.8 µM (inactive)
- GI50 (HOP-92): 38.4 µM (inactive)
- GI50 (Hs-578T): > 100 µM (inactive)
- GI50 (NCI/ADR-RES): 89.5 µM (inactive)
- GI50 (ACHN): > 100 µM (inactive)
- GI50 (KM12): > 100 µM (inactive)
- GI50 (SF-539): > 100 µM (inactive)
- GI50 (HL-60): > 100 µM (inactive)
- GI50 (TK-10): > 100 µM (inactive)
- GI50 (SNB-75): 23.8 µM (inactive)
- GI50 (T47D): > 100 µM (inactive)
- GI50 (HOP-62): > 100 µM (inactive)
- GI50 (NCI-H522): 2.32 µM (inactive)
- GI50 (NCI-H460): > 100 µM (inactive)
- GI50 (SK-MEL-2): > 100 µM (inactive)
- GI50 (RXF 393): > 100 µM (inactive)
- GI50 (SW-620): > 100 µM (inactive)
- GI50 (SK-OV-3): 18.3 µM (inactive)
- GI50 (UACC-257): > 100 µM (inactive)
- GI50 (786-0): > 100 µM (inactive)
- GI50 (SF-268): > 100 µM (inactive)
- GI50 (UO-31): > 100 µM (inactive)
- GI50 (HCT-15): > 100 µM
- GI50 (NCI-H226): 72.3 µM (inactive)
- GI50 (DU-145): > 100 µM (inactive)
- GI50 (HCT-116): > 100 µM (inactive)
- GI50 (NCI-H23): > 100 µM (inactive)
- GI50 (IGROV-1): 40.5 µM (inactive)
- GI50 (HCC 2998): > 100 µM (inactive)
- GI50 (SR): > 100 µM (inactive)
- GI50 (MCF7): > 100 µM (inactive)
- GI50 (M14): > 100 µM (inactive)
- GI50 (OVCAR-8): > 100 µM (inactive)
- GI50 (SF-295): > 100 µM (inactive)
- GI50 (COLO 205): > 100 µM (inactive)
- GI50 (Malme-3M): > 100 µM (inactive)
- GI50 (CAKI-1): 56.4 µM (inactive)
- GI50 (OVCAR-4): > 100 µM (inactive)
- GI50 (MDA-N): > 100 µM (inactive)
- GI50 (U-251): 3.9 µM (inactive)
- GI50 (OVCAR-5): > 100 µM (inactive)
- GI50 (RPMI-8226): > 100 µM (inactive)
- GI50 (PC-3): > 100 µM (inactive)
- GI50 (LOX IMVI): 61.4 µM (inactive)
